One experiment deals with T1, HLA-B*07:02 (Homo sapiens, UniProt P01889).
T1 construct: expressed in transfected cells; host or cells: RMA-S (TAP-deficient) cells transfected with HLA-B*07:02
Kind of experiment: cell-based.

Experiment [1] deals with CD4^+ T cell activation, HLA-DRB1*04:04 transgenic mice splenocytes. In kind it is cell-based. The note with it: acute response to rVACV-CHIKV, listed as CHIKV E2_133-145.
In the next experiment the target is HLA-C*07:02 (Homo sapiens, UniProt P10321).

“Also recorded” adds a separate entry of the source. Residues, ends and D or L forms follow the SMILES beside them.

Broadly, the EC50 is the concentration at which the effect is half-maximal. High values mean a less potent agent, low ones a more potent agent. `CC[C@H](C)[C@H](NC(=O)[C@@H](NC(=O)[C@@H]1CCCN1C(=O)[C@H](CCCNC(=N)N)NC(=O)[C@@H]1CCCN1C(=O)[C@@H](NC(=O)[C@H](Cc1c[nH]c2ccccc12)NC(=O)[C@@H]1CCCN1C(=O)[C@@H](N)CCCNC(=N)N)[C@@H](C)O)[C@@H](C)O)C(=O)O` (H-RPWTPRPTI-OH) showed an EC50 at HLA-B*07:02 of 6 ± 6 µM.
For the compound PPVIGREKFHSRP, in experiment [1], the “recognition of peptide-pulsed cells by spleen cells” value is “specifically recognized; also recorded: presented and recognized as an epitope bound to DRB1*04:04”.
Take YEHVTVIPNTVGVPYK: at HLA-C*07:02, the “detection in HLA-bound peptide pool” value was “most likely a HLA-C*07:02 ligand”.

Source of the values: PMC6636782 (PLoS Neglected Tropical Diseases, 2019).
